The text below walks through data of publication PMC6407579, “New flavonoid – N,N-dibenzyl(N-methyl)amine hybrids: Multi-target-directed agents for Alzheimer´s disease endowed with neurogenic properties” (Journal of Enzyme Inhibition and Medicinal Chemistry, 2019).

SMILES strings stand for the structures. Where “and” joins values, the source holds several entries; their conditions need not be identical. Equal values may be shown once. Read-outs that look alike come from different tables or passages of the source.

For assay [1], the target named is T1, human recombinant AChE (hAChE) (Homo sapiens, UniProt P22303).
T1 construct: purchased Sigma Chemical Co
In words: biochemical. On the procedure: The Ellman method was followed, using human recombinant AChE and BuChE from human serum. The assay solution consisted of 0.1 M phosphate buffer pH 8.0, 400 μM 5,5´-dithiobis(2-nitrobenzoic acid) (DTNB, Ellman’s reagent), 0.05 U/mL hAChE (Sigma Chemical Co.) or 0.024 U/mL hBuChE (Sigma Chemical Co.), and 800 μM acetylthiocholine iodide, or 500 μM butyrylthiocholine as the substrate of the enzymatic reaction, respectively. The compounds tested were added to the assay solution and preincubated with the enzyme for 5 min at 30 °C. After that period, the substrate was added.

The target of the next assay is T2, recombinant hMAO-A (Homo sapiens, UniProt P21397).
T2 sequence (P21397 1-527): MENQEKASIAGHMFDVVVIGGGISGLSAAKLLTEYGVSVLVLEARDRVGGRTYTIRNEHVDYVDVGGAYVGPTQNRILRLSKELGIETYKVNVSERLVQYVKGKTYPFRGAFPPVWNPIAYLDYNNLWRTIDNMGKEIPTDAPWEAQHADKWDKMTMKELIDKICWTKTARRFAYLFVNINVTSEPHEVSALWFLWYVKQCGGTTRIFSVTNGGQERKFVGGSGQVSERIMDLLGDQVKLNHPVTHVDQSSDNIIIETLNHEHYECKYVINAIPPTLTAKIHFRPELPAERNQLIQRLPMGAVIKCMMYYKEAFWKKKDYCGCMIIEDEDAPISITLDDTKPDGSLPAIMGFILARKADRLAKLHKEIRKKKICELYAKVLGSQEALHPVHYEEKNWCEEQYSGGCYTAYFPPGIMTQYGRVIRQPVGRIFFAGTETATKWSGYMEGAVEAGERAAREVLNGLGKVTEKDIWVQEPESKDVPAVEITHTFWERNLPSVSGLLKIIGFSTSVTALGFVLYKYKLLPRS
Nature of the assay: biochemical. In kind it is biochemical. Particulars: for IC50: mean ± SEM (n = 3), 100 µM highest concentration tested.

The nature of assay [2]: Oxygen radical absorbance capacity assay (ORAC). The note with it: trolox taken as 1.0.
For the next assay, the target named is T3, σ2R (Rattus norvegicus, UniProt Q5U3Y7).
T3 construct: 150 µg of rat liver homogenate were incubated; from tissue; host or cells: rat liver homogenate
T3 sequence (Q5U3Y7 1-176): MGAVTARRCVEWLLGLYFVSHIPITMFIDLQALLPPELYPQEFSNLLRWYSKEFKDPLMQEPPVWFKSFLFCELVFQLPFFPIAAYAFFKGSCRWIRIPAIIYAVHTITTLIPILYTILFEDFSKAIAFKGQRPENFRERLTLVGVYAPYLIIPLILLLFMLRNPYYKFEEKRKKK
In words: Sigma-2 receptor binding, [3H]-DTG competition.

In assay [3] the target is T4, human recombinant BACE-1 (hBACE-1) (Homo sapiens, UniProt P56817).
T4 construct: purchased Invitrogen
Nature of the assay: Human BACE-1 inhibition FRET assay. Format: biochemical.
Description: This experiment was carried out according to the protocol described by the manufacturer (Invitrogen) using a FRET assay[54]. […] The intact substrate is weakly fluorescent and becomes highly fluorescent upon enzymatic cleavage. The assays were conducted in 50 mM sodium acetate buffer, pH 4.5, in a final enzyme concentration (1 U/mL). The mixture was incubated for 60 min at 25 °C under dark conditions and then stopped with 2.5 M sodium acetate.

The test system of assay [4] is adult mice SGZ-derived NSCs. Nature of the assay: Neurogenic assay on SGZ-derived neural stem cells grown as neurospheres. Format: cell-based, mouse. The note with it: 10 µM, 7 days plus 3 days differentiation, vs. vehicle-treated cultures.
Description: DAPI was used for nuclear staining.
Neural stem cells were isolated from the SGZ of the dentate gyrus of the hippocampus of adult mice and cultured as NS according to previously published protocols[75]^,[76]. […] Now, NS were adhered onto 100 μg/mL poly-L-lysine-coated coverslips and treated for 3 additional days in the presence of serum but in the absence of exogenous growth factors to induce differentiation[77]. Finally, the expression of neuronal markers was analysed by immunocytochemistry using antibodies linked to neurogenesis: β-III-tubulin polyclonal antibody (TuJ clone; Abcam), a protein expressed at early stages of neurogenesis and a monoclonal microtubule-associated protein type 2 (MAP-2) antibody, a classical marker of late neuronal maturation. To visualise primary antibodies Alexa-fluor-labeled secondary antibodies (Molecular probes) were used. Nuclei were stained with DAPI. Fluorescent representative images were acquired in a LSM710 laser scanning spectral confocal microscope (Zeiss). […]
Compound was added to NS cultures for 7 days and then, NS were fixed to a substrate and allowed to differentiate in the presence of 6 for a 3-days additional period. Then, we evaluated the expression of β-III-tubulin (TuJ-1 clone; green) and microtubule-associated protein 2 (MAP-2, red) antibodies to visualise early and late neuronal maturation, respectively.
Another assay deals with T5, hAChE (Homo sapiens, UniProt P22303).
T5 construct: purchased Sigma Chemical Co
Nature of the assay: Kinetic analysis of hAChE inhibition (Lineweaver-Burk). In kind it is biochemical. On the procedure:
Figure 3. Kinetic study on the mechanism of hAChE inhibition by hybrid 5. (A) Overlaid Lineweaver-Burk reciprocal plots of hAChE initial velocity at increasing substrate concentration (ATCh, 0.2–1.6 mM) in the absence of inhibitor and in the presence of 5 (0–10 µM) are shown. Lines were derived from a least-squares analysis of the data points. (B) Replot of slopes vs. inhibitor concentration for calculating Ki as the intersection in the x-axis. […]
The initial velocity of enzymatic inhibition was measured at four concentrations of the substrate acetylthiocholine (ATCh, 0.2–1.6 mM), in absence and presence of increasing concentrations of inhibitor 5 (0.5–10 µM). For each inhibitor concentration, plotting reciprocals of velocity vs. ATCh concentration (1/V vs. 1/[ATCh]) gave straight lines that were fitted by least-squares analysis (Figure 3). […]

[5] abbreviates: mean ± SEM (n = 3), read-out: hAChE IC50.

T1 sequence (P22303 32-614): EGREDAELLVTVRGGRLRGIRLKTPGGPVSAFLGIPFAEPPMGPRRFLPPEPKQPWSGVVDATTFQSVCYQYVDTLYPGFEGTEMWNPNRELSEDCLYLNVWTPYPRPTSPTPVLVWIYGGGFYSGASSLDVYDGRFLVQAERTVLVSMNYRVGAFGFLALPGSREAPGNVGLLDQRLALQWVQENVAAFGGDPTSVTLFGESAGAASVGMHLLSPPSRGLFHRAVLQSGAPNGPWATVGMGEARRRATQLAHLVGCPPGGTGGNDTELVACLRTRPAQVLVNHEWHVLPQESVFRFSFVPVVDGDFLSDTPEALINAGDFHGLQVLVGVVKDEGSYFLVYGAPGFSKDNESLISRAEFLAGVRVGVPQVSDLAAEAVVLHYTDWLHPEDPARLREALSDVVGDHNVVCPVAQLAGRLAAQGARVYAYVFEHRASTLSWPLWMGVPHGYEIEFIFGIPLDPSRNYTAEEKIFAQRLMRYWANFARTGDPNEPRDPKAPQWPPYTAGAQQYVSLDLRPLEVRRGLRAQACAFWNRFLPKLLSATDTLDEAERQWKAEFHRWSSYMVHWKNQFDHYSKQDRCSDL
T5 sequence (P22303 32-614): as above
T4 sequence (P56817 46-501): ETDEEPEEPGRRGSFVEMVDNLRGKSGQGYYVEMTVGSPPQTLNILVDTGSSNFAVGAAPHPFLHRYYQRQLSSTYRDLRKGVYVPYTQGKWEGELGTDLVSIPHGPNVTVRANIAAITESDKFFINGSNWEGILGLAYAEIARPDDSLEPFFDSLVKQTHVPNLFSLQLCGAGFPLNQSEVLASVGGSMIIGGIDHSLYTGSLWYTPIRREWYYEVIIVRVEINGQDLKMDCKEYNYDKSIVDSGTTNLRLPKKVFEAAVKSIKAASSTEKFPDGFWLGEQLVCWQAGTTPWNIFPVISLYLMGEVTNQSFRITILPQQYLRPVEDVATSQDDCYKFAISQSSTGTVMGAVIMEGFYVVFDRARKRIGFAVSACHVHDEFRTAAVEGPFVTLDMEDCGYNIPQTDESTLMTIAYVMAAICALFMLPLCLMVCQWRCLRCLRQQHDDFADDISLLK

The IC50 is the concentration needed to halve the response being measured. Broadly, the Ki is the dissociation constant of the complex between target and ligand, obtained from inhibition or displacement. With `CN(Cc1ccccc1)Cc1ccc(NC(=O)c2cc(=O)c3cc(O)ccc3o2)cc1` [Compound 2, N-(4-((Benzyl(methyl)amino)methyl)phenyl)-6-hydroxy-4-oxo-4H-chromene-2-carboxamide], the IC50 in assay [1] (setting [5]) was 1300 ± 300 nM; at recombinant hMAO-A it was 7000 ± 800 nM. The “ORAC, trolox equivalents” value in assay [2] was 1.6 mmol of trolox/mmol of tested compound and 1.6 ± 0.2 mmol of trolox/mmol of tested compound. The molecule also registered a Ki on σ2R of 1600 ± 280 nM.

For `COc1ccc2oc(C(=O)Nc3ccc(CN(C)Cc4ccccc4)cc3)cc(=O)c2c1` [Compound 1, N-(4-((Benzyl(methyl)amino)methyl)phenyl)-6-methoxy-4-oxo-4H-chromene-2-carboxamide], the IC50 in assay [1] (setting [5]) is 1500 ± 200 nM. In addition, at recombinant hMAO-A, the “preference for hMAO-A compared to hMAO-B” value was “at least 4.4 times” and the 50% inhibitory concentration (IC50) was found to be 1600 ± 400 nM. This molecule also displayed a Ki on σ2R of 1780 ± 430 nM.

Usually inhibition stands for the share of the control response that was lost under treatment. In the case of `COc1cc2oc(C(=O)Nc3cccc(CN(C)Cc4ccccc4)c3)cc(=O)c2cc1OC` [Compound 6, N-(3-((Benzyl(methyl)amino)methyl)phenyl)-6,7-dimethoxy-4-oxo-4H-chromene-2-carboxamide], the IC50 was 4500 ± 800 nM in assay [1] (hAChE IC50, mean ± SEM (n = 3)); more than 100000 nM at recombinant hMAO-A; 6700 ± 800 nM in assay [3] (inhibitor concentrations 0.1–100 µM). In assay [3] (10 µM, read-out: hBACE-1 inhibition percentage), the inhibition at 10 µM was approximately 80%. Further, at σ2R (rat liver homogenate, [3H]-DTG, mean ± SEM, read-out: Ki σ2R), the Ki is 1300 ± 350 nM. In addition, the “number of TuJ-1 and MAP-2 marked cells (neuronal differentiation of NSCs)” value in assay [4] is reported as “clearly increased”.

Take `COc1cc2oc(C(=O)Nc3ccc(CN(C)Cc4ccccc4)cc3)cc(=O)c2cc1OC` [Compound 5, N-(4-((Benzyl(methyl)amino)methyl)phenyl)-6,7-dimethoxy-4-oxo-4H-chromene-2-carboxamide]: the IC50 was 990 nM and 1000 nM in assay [1] (hAChE IC50, mean ± SEM (n = 3)); 9000 ± 100 nM on recombinant hMAO-A. In addition, on hAChE, the affinity corresponds to a Ki of 950 nM. For the same molecule, the “mechanism of hAChE inhibition” value on hAChE (Lineweaver-Burk) was “a mixture of competitive and non-competitive mechanisms”.
